Data reported in ChEMBL document CHEMBL4619786, “Discovery of Novel Resorcinol Dibenzyl Ethers Targeting the Programmed Cell Death-1/Programmed Cell Death-Ligand 1 Interaction as Potential Anticancer Agents” (J Med Chem, 2020).

How the values were obtained:
B16-F10 [1] = assay: Antitumor activity against mouse B16/F10 cells implanted in BALB/c mouse assessed as tumor growth inhibition at 100 mg/kg, ig administered once daily via gavage for 15 days relative to control; type: functional; settings: B16-F10, po, 360 h, read-out: TGI
Mus musculus [2] = assay: Effect on activated cytotoxic T cell population in mouse B16/F10 cells implanted […] mouse assessed as spleen cell population at 50 mg/kg, ig administered once daily via gavage for 15 days measured 24 hrs post-last dose by immunostaining based flow cytometry (reference value: 57.9 %); type: organism-based; settings: in vivo, po
Mus musculus [3] = assay: Effect on spleen helper T cell population in mouse B16/F10 cells implanted […] mouse assessed as CD4-positive cell population at 25 mg/kg, ig administered once daily via gavage for 15 days measured 24 hrs post-last dose by immunostaining based flow cytometry (reference value: 1.47 %); type: ADME, organism-based; settings: in vivo, po
[4] = target: Programmed cell death protein 1/Programmed cell death 1 ligand 1 (Homo sapiens, UniProt Q9NZQ7); assay: (§1) Inhibition of human PD1/PDL1 protein-protein interaction in human PBMC-derived CD3-positive T cells co-cultured with human Hep3B cells expressing human PDL1/OS-8 assessed as increase in IFNgamma secretion measured after 72 hrs by ELISA
[5] = target: Programmed cell death protein 1/Programmed cell death 1 ligand 1 (Homo sapiens) (UniProt Q15116+Q9NZQ7); assay: as §1
[6] = Half life in Sprague-Dawley rat at 10 mg/kg, po by LC-MS/MS analysis; type: ADME, organism-based; settings: in vivo
[7] = AUC (0 to t) in Sprague-Dawley rat at 10 mg/kg, po by LC-MS/MS analysis; type: ADME, organism-based; settings: in vivo
B16-F10 [8] = assay: Antitumor activity against mouse B16/F10 cells implanted in BALB/c mouse assessed as tumor weight at 50 mg/kg, ig administered once daily via gavage for 15 days measured 24 hrs post-last dose (reference value: 0.84 +/- 0.32 g); type: functional
Mus musculus [9] = assay: Immunostimulatory activity in mouse B16/F10 cells implanted […] mouse assessed as increase in activation of tumor-microenvironment mediated activated cytotoxic T cells in tumor by measuring CD3-positive/CD8-positive cell population at 100 mg/kg, ig administered once daily via gavage for 15 days measured 24 hrs post-last dose by immunostaining based flow cytometry (reference value: 4.18%); type: functional
[10] = Clearance in Sprague-Dawley rat at 10 mg/kg, po by LC-MS/MS analysis; type: ADME, organism-based; settings: in vivo
Mus musculus [11] = assay: Immunostimulatory activity in mouse B16/F10 cells implanted BALB/c mouse assessed as increase in activation of tumor-microenvironment mediated activated cytotoxic T cells in tumor by measuring CD3-positive/CD8-positive cell population at 50 mg/kg, ig administered once daily via gavage for 15 days measured 24 hrs post-last dose by immunostaining based flow cytometry (reference value: 4.18%); type: functional
[12] = Toxicity in mouse B16/F10 cells implanted […] mouse assessed as change in spleen weight at 25 to 100 mg/kg, ig administered once daily via gavage for 15 days measured 24 hrs post-last dose; type: organism-based; settings: in vivo, po
Mus musculus [13] = assay: Immunostimulatory activity in mouse B16/F10 cells implanted […] mouse assessed as increase in activation of tumor-microenvironment mediated helper T cells in tumor by measuring CD4-positive cell population at 100 mg/kg, ig administered once daily via gavage for 15 days measured 24 hrs post-last dose by immunostaining based flow cytometry (reference value: 4.95%); type: functional
[14] = Toxicity in Sprague-Dawley rat at 1 mg/kg, iv; type: organism-based; settings: in vivo
[15] = AUC (0 to t) in Sprague-Dawley rat at 1 mg/kg, iv by LC-MS/MS analysis; type: ADME, organism-based; settings: in vivo
B16-F10 [16] = assay: Antitumor activity against mouse B16/F10 cells implanted in BALB/c mouse assessed as tumor growth inhibition at 25 mg/kg, ig administered once daily via gavage for 15 days relative to control; type: functional; settings: B16-F10, po, 360 h, read-out: TGI
Mus musculus [17] = assay: Immunostimulatory activity in mouse B16/F10 cells implanted BALB/c mouse assessed as increase in activation of tumor-microenvironment mediated activated cytotoxic T cells in tumor by measuring CD8-positive cell population at 25 mg/kg, ig administered once daily via gavage for 15 days measured 24 hrs post-last dose by immunostaining based flow cytometry (reference value: 2.2%); type: functional
Mus musculus [18] = assay: Immunostimulatory activity in mouse B16/F10 cells implanted BALB/c mouse assessed as increase in activation of tumor-microenvironment mediated helper T cells in tumor by measuring CD3-positive/CD4-positive cell population at 50 mg/kg, ig administered once daily via gavage for 15 days measured 24 hrs post-last dose by immunostaining based flow cytometry (reference value: 6.15%); type: functional
Mus musculus [19] = assay: Effect on activated cytotoxic T cell population in mouse B16/F10 cells implanted […] mouse assessed as CD3-positive/CD8-positive cell population in spleen at 25 mg/kg, ig administered once daily via gavage for 15 days measured 24 hrs post-last dose by immunostaining based flow cytometry (reference value: 14.2 %); type: organism-based; settings: in vivo, po
H22 = assay: Antitumor activity against […] cells xenografted in BALB/c mouse assessed as tumor growth inhibition at 25 mg/kg, ip administered once daily 14 days relative to control; type: functional; settings: 336 h, read-out: TGI
Mus musculus [20] = assay: Effect on spleen helper T cell population in mouse B16/F10 cells implanted […] mouse assessed as CD3-positive/CD4-positive cell population at 25 mg/kg, ig administered once daily via gavage for 15 days measured 24 hrs post-last dose by immunostaining based flow cytometry (reference value: 27.7%); type: ADME, organism-based; settings: in vivo, po
Mus musculus [21] = assay: Effect on spleen helper T cell population in mouse B16/F10 cells implanted […] mouse assessed as spleen cell population at 100 mg/kg, ig administered once daily via gavage for 15 days measured 24 hrs post-last dose by immunostaining based flow cytometry (reference value: 56.1 %); type: ADME, organism-based; settings: in vivo, po
B16-F10 [22] = assay: Antitumor activity against mouse B16/F10 cells implanted in BALB/c mouse assessed as tumor weight at 25 mg/kg, ig administered once daily via gavage for 15 days measured 24 hrs post-last dose (reference value: 0.84 +/- 0.32 g); type: functional
Mus musculus [23] = assay: Effect on activated cytotoxic T cell population in mouse B16/F10 cells implanted […] mouse assessed as CD8-positive cell population in spleen at 100 mg/kg, ig administered once daily via gavage for 15 days measured 24 hrs post-last dose by immunostaining based flow cytometry (reference value: 0.383 %); type: organism-based; settings: in vivo, po
[24] = Oral bioavailability in Sprague-Dawley rat at 10 mg/kg by LC-MS/MS analysis; type: ADME, organism-based; settings: in vivo
[25] = Toxicity in […] cells xenografted BALB/c mouse assessed as decrease in body weight at 25 mg/kg, ip administered once daily for 14 days measured daily during compound dosing; type: organism-based; settings: in vivo, 336 h
B16-F10 [26] = assay: Antitumor activity against mouse B16/F10 cells implanted in BALB/c mouse assessed as tumor growth inhibition at 50 mg/kg, ig administered once daily via gavage for 15 days relative to control; type: functional; settings: B16-F10, po, 360 h, read-out: TGI
Mus musculus [27] = assay: Effect on spleen helper T cell population in mouse B16/F10 cells implanted […] mouse assessed as CD3-positive cell population at 50 mg/kg, ig administered once daily via gavage for 15 days measured 24 hrs post-last dose by immunostaining based flow cytometry (reference value: 14.7%); type: organism-based; settings: in vivo, po

Sequence of Programmed cell death protein 1/Programmed cell death 1 ligand 1 (Q15116 whole entry): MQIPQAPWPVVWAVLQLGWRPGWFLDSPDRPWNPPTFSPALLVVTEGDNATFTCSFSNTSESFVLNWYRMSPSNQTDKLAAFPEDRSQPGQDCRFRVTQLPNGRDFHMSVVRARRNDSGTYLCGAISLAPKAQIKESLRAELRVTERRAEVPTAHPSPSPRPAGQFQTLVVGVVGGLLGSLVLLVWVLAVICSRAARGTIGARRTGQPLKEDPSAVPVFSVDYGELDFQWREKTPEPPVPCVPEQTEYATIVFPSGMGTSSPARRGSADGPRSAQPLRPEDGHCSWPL
Sequence of Programmed cell death protein 1/Programmed cell death 1 ligand 1 (Q9NZQ7 whole entry): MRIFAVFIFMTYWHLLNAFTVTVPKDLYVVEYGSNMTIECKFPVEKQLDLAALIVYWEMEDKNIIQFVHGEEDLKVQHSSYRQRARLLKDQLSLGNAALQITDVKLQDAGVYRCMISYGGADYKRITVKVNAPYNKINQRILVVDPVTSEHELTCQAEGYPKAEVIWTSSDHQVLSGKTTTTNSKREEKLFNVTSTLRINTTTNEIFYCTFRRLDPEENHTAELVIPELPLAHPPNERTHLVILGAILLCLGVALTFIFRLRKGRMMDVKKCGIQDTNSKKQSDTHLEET

Cc1c(COc2cc(OCc3cccc(C#N)c3)c(CNC(C)(C)C(=O)O)cc2Cl)cccc1-c1ccccc1
inhibition in vivo at 100 mg/kg (B16-F10 [1]): 80.9% | Activity (Mus musculus [2]): 55.4% | Activity (Mus musculus [3]): 1.94% | EC50 [4]: 3 µM | inhibition [5]: Dose-dependent effect | half-life [6]: 10.9 h | AUC(0-t) [7]: 0.41 µg·h/mL | Activity (B16-F10 [8]): 0.21 g | Activity (Mus musculus [9]): 23% | CL/F [10]: 23.1 L/h/kg | Activity (Mus musculus [11]): 14.8% | Activity [12]: Non-Toxic | Activity (Mus musculus [13]): 1.3% | Activity [14]: Non-Toxic | AUC(0-t) [15]: 0.967 µg·h/mL | inhibition in vivo at 25 mg/kg (B16-F10 [16]): 51.1% | Activity (Mus musculus [17]): 10.2% | Activity (Mus musculus [18]): 11.7% | Activity (Mus musculus [19]): 12.5% | inhibition in vivo at 25 mg/kg (H22): 76.5% | Activity (Mus musculus [20]): 24.4% | Activity (Mus musculus [21]): 60.4% | Activity (B16-F10 [22]): 0.41 g | Activity (Mus musculus [23]): 0.44% | bioavailability [24]: 5% | Activity [25]: Non-Toxic | inhibition in vivo at 50 mg/kg (B16-F10 [26]): 75% | Activity (Mus musculus [27]): 16.7%
